According to PubChem BioAssay (NCI):
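Assay format: 96-well plates, 48-hour exposure. GI50: concentration for 50% inhibition of growth. Definition used: TGI = concentration required for complete inhibition of growth.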

Experiments:
Test in all cases: DTP human tumour cell line panel, 48 h
[1] = tested on: MDA-MB-231 breast
[2] = tested on: HOP-92 NSCLC
[3] = tested on: 786-0 renal
[4] = tested on: HCC-2998 colon
[5] = tested on: A549 NSCLC
[6] = tested on: OVCAR-5 ovarian
[7] = tested on: A498 renal
[8] = tested on: OVCAR-8 ovarian
[9] = tested on: U251 CNS
[10] = tested on: COLO 205 colon
[11] = tested on: NCI-H522 lung
[12] = tested on: HCT-116 colon
[13] = tested on: HS 578T breast
[14] = tested on: MCF7 breast
[15] = tested on: M14 melanoma
[16] = tested on: SK-OV-3 ovarian
[17] = tested on: UO-31 renal
[18] = tested on: NCI-H226 lung
[19] = tested on: NCI/ADR-RES ovarian
[20] = tested on: SNB-19 CNS
[21] = tested on: K-562 leukemia
[22] = tested on: SW-620 colon
[23] = tested on: MALME-3M melanoma
[24] = tested on: OVCAR-4 ovarian
[25] = tested on: LOX IMVI melanoma
[26] = tested on: IGROV1 ovarian
[27] = tested on: SF-539 CNS
[28] = tested on: UACC-257 melanoma
[29] = tested on: BT-549 breast
[30] = tested on: UACC-62 melanoma
[31] = tested on: PC-3 prostate
[32] = tested on: SN12C renal
[33] = tested on: SK-MEL-5 melanoma
[34] = tested on: MDA-MB-435
[35] = tested on: RPMI-8226 leukemia
[36] = tested on: SF-268 CNS
[37] = tested on: SK-MEL-2 melanoma
[38] = tested on: SF-295 CNS
[39] = tested on: SK-MEL-28 melanoma
[40] = tested on: HCT-15 colon
[41] = tested on: T-47D breast
[42] = tested on: TK-10 renal
[43] = tested on: SNB-75 CNS
[44] = tested on: NCI-H460 lung
[45] = tested on: ACHN renal
[46] = tested on: HT29 colon
[47] = tested on: RXF 393 renal
[48] = tested on: OVCAR-3 ovarian
[49] = tested on: KM12 colon
[50] = tested on: DU-145 prostate
[51] = tested on: MOLT-4 leukemia
[52] = tested on: NCI-H23 lung
[53] = tested on: CAKI-1 renal
[54] = tested on: EKVX NSCLC
[55] = tested on: HL-60(TB) leukemia

CC(C)Oc1ccc(C(=O)N[C@H](CNC(=O)CN(C)C)Cc2ccc(-c3cn4cccc([C@H](C)O)c4n3)cc2)cc1Cl gave a GI50 [1] of 0.0445 µM, a TGI [1] of 8.2 µM and a GI50 [2] of 11.2 µM. The TGI [2] was 24.3 µM, the GI50 [3] was 0.0578 µM and the TGI [3] was 17.8 µM. It also gave a GI50 [4] of 0.0695 µM, a TGI [4] of 17.3 µM and a GI50 [5] of 0.0507 µM. For the same molecule, the TGI [5] was 22.1 µM, the GI50 [6] was 0.0771 µM and the TGI [6] was 22.2 µM. It also gave a GI50 [7] of 0.213 µM, a TGI [7] of 13.9 µM and a GI50 [8] of 0.0674 µM. For the same molecule, the TGI [8] was 26.6 µM, the GI50 [9] was 0.0534 µM and the TGI [9] was 19.2 µM. The GI50 [10] was 0.0396 µM, the TGI [10] was 13.2 µM and the GI50 [11] was 0.0229 µM. For the same molecule, the TGI [11] was 0.0698 µM, the GI50 [12] was 0.0355 µM and the TGI [12] was 14.2 µM. It also gave a GI50 [13] of 1.38 µM, a TGI [13] of 33.4 µM and a GI50 [14] of 0.0366 µM. For the same molecule, the TGI [14] was 19.5 µM, the GI50 [15] was 0.0301 µM and the TGI [15] was 0.15 µM. It also gave a GI50 [16] of 0.0694 µM, a TGI [16] of 22.9 µM and a GI50 [17] of 2.56 µM. The TGI [17] was 19.1 µM, the GI50 [18] was 10.9 µM and the TGI [18] was 28.8 µM. For the same molecule, the GI50 [19] was 2.64 µM, the TGI [19] was 19.8 µM and the GI50 [20] was 0.0625 µM. The TGI [20] was 23.9 µM, the GI50 [21] was 0.0375 µM and the TGI [21] was 14.7 µM. It also gave a GI50 [22] of 0.0613 µM, a TGI [22] of 21.6 µM and a GI50 [23] of 0.078 µM. For the same molecule, the TGI [23] was 16.3 µM, the GI50 [24] was 0.316 µM and the TGI [24] was 18.7 µM. For the same molecule, the GI50 [25] was 0.0736 µM, the TGI [25] was 14.5 µM and the GI50 [26] was 11.1 µM. It also gave a TGI [26] of 31 µM, a GI50 [27] of 0.0323 µM and a TGI [27] of 1.19 µM. For the same molecule, the GI50 [28] was 1.36 µM, the TGI [28] was 11.3 µM and the GI50 [29] was 0.068 µM. For the same molecule, the TGI [29] was 17.6 µM, the GI50 [30] was 0.0706 µM and the TGI [30] was 24.3 µM. For the same molecule, the GI50 [31] was 0.0664 µM, the TGI [31] was 21.4 µM and the GI50 [32] was 0.0661 µM. For the same molecule, the TGI [32] was 20.4 µM, the GI50 [33] was 0.33 µM and the TGI [33] was 2.82 µM. For the same molecule, the GI50 [34] was 0.0293 µM, the TGI [34] was 12.8 µM and the GI50 [35] was 0.0399 µM. The TGI [35] was 19.8 µM, the GI50 [36] was 0.0727 µM and the TGI [36] was 20.9 µM. It also gave a GI50 [37] of 0.0434 µM, a TGI [37] of 11.1 µM and a GI50 [38] of 0.0372 µM. For the same molecule, the TGI [38] was 14.6 µM, the GI50 [39] was 4 µM and the TGI [39] was 20.3 µM. For the same molecule, the GI50 [40] was 0.423 µM, the TGI [40] was 19.4 µM and the GI50 [41] was 3.72 µM. It also gave a TGI [41] of 30.3 µM, a GI50 [42] of 11.8 µM and a TGI [42] of 24.6 µM. For the same molecule, the GI50 [43] was 0.0222 µM, the TGI [43] was 13.3 µM and the GI50 [44] was 0.036 µM. It also gave a TGI [44] of 12.6 µM, a GI50 [45] of 6.6 µM and a TGI [45] of 21.8 µM. The GI50 [46] was 0.035 µM, the TGI [46] was 13 µM and the GI50 [47] was 0.0711 µM. For the same molecule, the TGI [47] was 13.4 µM, the GI50 [48] was 0.0393 µM and the TGI [48] was 15.7 µM. The GI50 [49] was 0.0381 µM, the TGI [49] was 18 µM and the GI50 [50] was 0.0385 µM. It also gave a TGI [50] of 13.1 µM, a GI50 [51] of 0.0441 µM and a TGI [51] of 18 µM. For the same molecule, the GI50 [52] was 0.0566 µM, the TGI [52] was 21.5 µM and the GI50 [53] was 0.538 µM. The TGI [53] was 17.9 µM, the GI50 [54] was 0.0547 µM and the TGI [54] was 21.6 µM.

For COc1ccccc1Cn1c2c(c3c(C(=O)NCCN(C)C)c(O)ccc31)C(=O)c1ccccc1C2=O, the TGI [1] was 3.72 µM, the TGI [4] was 3.02 µM and the TGI [6] was 3.62 µM. It also gave a TGI [7] of 41.2 µM, a TGI [10] of 3.19 µM and a TGI [16] of 43.4 µM. It also gave a TGI [17] of 3.33 µM, a TGI [18] of 51.5 µM and a TGI [19] of 4.93 µM. The TGI [21] was 4 µM, the TGI [24] was 3.04 µM and the TGI [26] was 3.23 µM. For the same molecule, the TGI [27] was 3.09 µM, the TGI [29] was 64.7 µM and the TGI [34] was 3.24 µM. The TGI [37] was 3.46 µM, the TGI [39] was 3.15 µM and the TGI [43] was 2.96 µM. It also gave a TGI [44] of 4.23 µM, a TGI [46] of 3.47 µM and a TGI [48] of 3.36 µM. It also gave a TGI [50] of 3.31 µM and a TGI [55] of 2.78 µM.
